Experimental data taken from ChEMBL document CHEMBL3102790, “Synthesis of quercetin glycosides and their melanogenesis stimulatory activity in B16 melanoma cells” (Bioorg Med Chem, 2014).

Assays:
[1] = molecular target: T1, Tyrosinase (Agaricus bisporus) (UniProt O42713); assay: Induction of mushroom tyrosinase activity using L-DOPA as substrate at 50 uM after 30 mins
T1 sequence (whole entry): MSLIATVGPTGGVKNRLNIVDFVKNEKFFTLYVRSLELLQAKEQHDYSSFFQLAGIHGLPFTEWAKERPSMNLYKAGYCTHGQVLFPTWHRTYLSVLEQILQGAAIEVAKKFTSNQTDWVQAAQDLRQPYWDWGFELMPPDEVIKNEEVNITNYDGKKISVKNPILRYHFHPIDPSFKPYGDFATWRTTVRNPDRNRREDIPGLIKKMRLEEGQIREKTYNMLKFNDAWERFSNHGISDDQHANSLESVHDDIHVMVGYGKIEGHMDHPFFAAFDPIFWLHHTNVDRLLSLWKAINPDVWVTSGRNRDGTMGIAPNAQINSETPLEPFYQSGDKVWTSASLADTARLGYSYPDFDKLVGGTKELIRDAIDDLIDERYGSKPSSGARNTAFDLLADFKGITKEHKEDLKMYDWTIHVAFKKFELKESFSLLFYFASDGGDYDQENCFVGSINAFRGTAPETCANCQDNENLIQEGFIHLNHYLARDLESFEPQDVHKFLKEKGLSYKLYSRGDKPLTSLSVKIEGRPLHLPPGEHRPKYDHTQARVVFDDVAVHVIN

[2] = molecular target: T1, Tyrosinase (Agaricus bisporus); assay: Induction of mushroom tyrosinase activity using L-DOPA as substrate at 200 uM after 30 mins
B16-F10 [3] = assay: Induction of melanogenesis in mouse B16F10 cells assessed as intracellular melanin level at 200 uM after 72 hrs; assay type: functional
B16-F10 [4] = assay: Induction of melanogenesis in mouse B16F10 cells assessed as intracellular melanin level at 100 uM after 72 hrs; assay type: functional
[5] = molecular target: T1, Tyrosinase (Agaricus bisporus); assay: Induction of mushroom tyrosinase activity using L-DOPA as substrate at 100 uM after 30 mins
B16-F10 [6] = assay: Induction of melanogenesis in mouse B16F10 cells assessed as intracellular melanin level at 10 uM after 72 hrs; assay type: functional
[7] = Cytotoxicity against mouse B16F10 cells assessed as cell viability at 200 uM by MTT assay; assay type: cell-based, B16-F10; conditions: read-out: Activity
[8] = Cytotoxicity against mouse B16F10 cells assessed as cell viability at 100 uM by MTT assay; assay type: cell-based, B16-F10; conditions: read-out: Activity
[9] = molecular target: T1, Tyrosinase (Agaricus bisporus); assay: Induction of mushroom tyrosinase activity using L-tyrosine as substrate at 50 uM after 30 mins
[10] = Cytotoxicity against mouse B16F10 cells assessed as cell viability at 10 uM by MTT assay; assay type: cell-based, B16-F10; conditions: read-out: Activity
[11] = molecular target: T1, Tyrosinase (Agaricus bisporus); assay: Induction of mushroom tyrosinase activity using L-tyrosine as substrate at 200 uM after 30 mins
[12] = molecular target: T1, Tyrosinase (Agaricus bisporus); assay: Induction of mushroom tyrosinase activity using L-tyrosine as substrate at 100 uM after 30 mins
B16-F10 [13] = assay: Induction of melanogenesis in mouse B16F10 cells assessed as intracellular melanin level after 72 hrs; assay type: functional, cell-based
B16-F10 [14] = assay: Induction of melanogenesis in mouse B16F10 cells assessed as intracellular melanin level at 125 uM after 72 hrs; assay type: functional
B16-F10 [15] = assay: Induction of melanogenesis in mouse B16F10 cells assessed as intracellular melanin level at 500 uM after 72 hrs; assay type: functional
[16] = Cytotoxicity against mouse B16F10 cells assessed as cell viability at 500 uM by MTT assay; assay type: cell-based, B16-F10; conditions: read-out: Activity
[17] = Cytotoxicity against mouse B16F10 cells assessed as cell viability at 125 uM by MTT assay; assay type: cell-based, B16-F10; conditions: read-out: Activity
B16-F10 [18] = assay: Induction of melanogenesis in mouse B16F10 cells assessed as intracellular melanin level at 250 uM after 72 hrs; assay type: functional
[19] = Cytotoxicity against mouse B16F10 cells assessed as cell viability at 250 uM by MTT assay; assay type: cell-based, B16-F10; conditions: read-out: Activity

SMILES	Activity [1]	Activity [2]	Activity (B16-F10 [3])	Activity (B16-F10 [4])	Activity [5]	Activity (B16-F10 [6])	viability at 200 µM [7]	viability at 100 µM [8]	Activity [9]	viability at 10 µM [10]	Activity [11]	Activity [12]	Activity (B16-F10 [13])	Activity (B16-F10 [14])	Activity (B16-F10 [15])	viability at 500 µM [16]	viability at 125 µM [17]	Activity (B16-F10 [18])	viability at 250 µM [19]
O=c1c(O[C@@H]2O[C@H](CO)[C@@H](O)[C@H](O)[C@H]2O)c(-c2ccc(O[C@@H]3O[C@H](CO)[C@@H](O)[C@H](O)[C@H]3O)c(O)c2)oc2cc(O)cc(O)c12	102%	99.3%	92.6%	90.4%	99.3%	89.7%	77.4%	104%	101%	107%	94.3%	98.8%	–	–	–	–	–	–	–
O=c1c(O[C@@H]2O[C@H](CO)[C@@H](O)[C@H](O)[C@H]2O)c(-c2ccc(O)c(O)c2)oc2cc(O)cc(O)c12 [ISOQUERCETIN]	107%	116%	206.9%	157.1%	110%	116.3%	68.4%	80.9%	112%	105%	104%	96.2%	Dose-dependent effect	–	–	–	–	–	–
O=c1c(O[C@@H]2O[C@H](CO)[C@@H](O[C@@H]3O[C@H](CO)[C@@H](O)[C@H](O)[C@H]3O)[C@H](O)[C@H]2O)c(-c2ccc(O)c(O)c2)oc2cc(O[C@@H]3O[C@H](CO)[C@@H](O[C@@H]4O[C@H](CO)[C@@H](O)[C@H](O)[C@H]4O)[C@H](O)[C@H]3O)cc(O)c12	101%	103%	102.6%	97.8%	102%	80.3%	95.2%	93.9%	104%	105%	101%	104%	–	–	–	–	–	–	–
O=c1c(O[C@@H]2O[C@H](CO)[C@@H](O[C@@H]3O[C@H](CO)[C@@H](O)[C@H](O)[C@H]3O)[C@H](O)[C@H]2O)c(-c2ccc(O)c(O)c2)oc2cc(O)cc(O)c12	103%	112%	176%	126.8%	107%	102.6%	81.1%	93.2%	97.5%	99.6%	82.2%	95%	Dose-dependent effect	–	–	–	–	–	–
Cn1c(=O)c2nc[nH]c2n(C)c1=O.O [THEOPHYLLINE]	–	–	–	–	–	–	–	–	–	–	–	–	–	127.6%	166.8%	91.4%	95.5%	131.7%	94.4%
O=c1c(O[C@@H]2O[C@H](CO)[C@@H](O)[C@H](O)[C@H]2O)c(-c2ccc(O[C@@H]3O[C@H](CO)[C@@H](O[C@@H]4O[C@H](CO)[C@@H](O)[C@H](O)[C@H]4O)[C@H](O)[C@H]3O)c(O)c2)oc2cc(O)cc(O)c12	103%	109%	96.3%	90.9%	105%	96.8%	106%	107%	88.9%	97.8%	82.4%	85.2%	–	–	–	–	–	–	–
O=c1c(O[C@@H]2O[C@H](CO)[C@@H](O[C@@H]3O[C@H](CO)[C@@H](O)[C@H](O)[C@H]3O)[C@H](O)[C@H]2O)c(-c2ccc(O)c(O)c2)oc2cc(O[C@@H]3O[C@H](CO)[C@@H](O)[C@H](O)[C@H]3O)cc(O)c12	102%	104%	119%	78.9%	104%	91.1%	98.7%	113%	103%	95.1%	104%	102%	–	–	–	–	–	–	–
O=c1c(O[C@@H]2O[C@H](CO)[C@@H](O)[C@H](O)[C@H]2O)c(-c2ccc(O)c(O)c2)oc2cc(O[C@@H]3O[C@H](CO)[C@@H](O[C@@H]4O[C@H](CO)[C@@H](O)[C@H](O)[C@H]4O)[C@H](O)[C@H]3O)cc(O)c12	108%	110%	83.8%	78.9%	105%	91.1%	111%	113%	95.2%	95.1%	85.6%	89%	–	–	–	–	–	–	–
O=c1c(O[C@@H]2O[C@H](CO)[C@@H](O)[C@H](O)[C@H]2O)c(-c2ccc(O)c(O)c2)oc2cc(O[C@@H]3O[C@H](CO)[C@@H](O)[C@H](O)[C@H]3O)cc(O)c12	103%	106%	86.5%	113.9%	103%	85%	114%	78%	92.8%	97.7%	86.7%	85.5%	–	–	–	–	–	–	–
O=c1c(O[C@@H]2O[C@H](CO)[C@@H](O[C@@H]3O[C@H](CO)[C@@H](O)[C@H](O)[C@H]3O)[C@H](O)[C@H]2O)c(-c2ccc(O[C@@H]3O[C@H](CO)[C@@H](O[C@@H]4O[C@H](CO)[C@@H](O)[C@H](O)[C@H]4O)[C@H](O)[C@H]3O)c(O)c2)oc2cc(O)cc(O)c12	107%	108%	99.7%	84.77%	103%	79.7%	99.7%	106%	100%	107%	97.6%	95%	–	–	–	–	–	–	–
O=c1c(O[C@@H]2O[C@H](CO)[C@@H](O[C@@H]3O[C@H](CO)[C@@H](O)[C@H](O)[C@H]3O)[C@H](O)[C@H]2O)c(-c2ccc(O[C@@H]3O[C@H](CO)[C@@H](O)[C@H](O)[C@H]3O)c(O)c2)oc2cc(O)cc(O)c12	101%	101%	190.5%	151.5%	103%	137%	74.8%	86.8%	105%	90%	106%	95.9%	Dose-dependent effect	–	–	–	–	–	–
